Test results from US9849129B2, “Sodium channel blockers for skin disorders” (PARION SCIENCES, INC., priority 2015, dated 2017).

Experiments:
Bronchial cells = assay: Apical disappearance assay (epithelial absorption); format: in vitro ADME; conditions: for Epithelial Uptake Rate: apical surface, initial concentration 10 μM
Procedure: Bronchial cells (dog, human, sheep, or rodent cells) are seeded at a density of 0.25×10^6/cm^2 on a porous Transwell-Col collagen-coated membrane with a growth area of 1.13 cm^2 grown at an air-liquid interface in hormonally defined media that promotes a polarized epithelium. From 12 to 20 days after development of an air-liquid interface (ALI) the cultures are expected to be >90% ciliated, and mucins will accumulate on the cells. To ensure the integrity of primary airway epithelial cell preparations, the transepithelial resistance (Rt) and transepithelial potential differences (PD), which are indicators of the integrity of polarized nature of the culture, are measured. Human cell systems are preferred for studies of rates of absorption from apical surfaces. […] A series of samples (5 μl volume per sample) is collected at various time points, including 0, 5, 20, 40, 90 and 240 minutes. Concentrations are determined by measuring intrinsic fluorescence of each sodium channel blocker using a Fluorocount Microplate Flourometer or HPLC. Quantitative analysis employs a standard curve generated from authentic reference standard materials of known concentration and purity. Data analysis of the rate of disappearance is performed using nonlinear regression, one phase exponential decay (Prism V 3.0).

[1] = target: T1, airway epithelial sodium currents (epithelial sodium channel, ENaC) (UniProt A0A8I3MKE6+A0A8I3Q679+Q95165); assay: Sodium channel blocking activity: short circuit current (ISC) in airway epithelial monolayers in Ussing chambers; conditions: for IC50: read-out: Potency of Sodium Channel Blockade (IC50), lumenal addition, airway epithelial monolayers (human, dog, sheep or rodent cells, not specified)
T1 sequence (A0A8I3MKE6 1-646): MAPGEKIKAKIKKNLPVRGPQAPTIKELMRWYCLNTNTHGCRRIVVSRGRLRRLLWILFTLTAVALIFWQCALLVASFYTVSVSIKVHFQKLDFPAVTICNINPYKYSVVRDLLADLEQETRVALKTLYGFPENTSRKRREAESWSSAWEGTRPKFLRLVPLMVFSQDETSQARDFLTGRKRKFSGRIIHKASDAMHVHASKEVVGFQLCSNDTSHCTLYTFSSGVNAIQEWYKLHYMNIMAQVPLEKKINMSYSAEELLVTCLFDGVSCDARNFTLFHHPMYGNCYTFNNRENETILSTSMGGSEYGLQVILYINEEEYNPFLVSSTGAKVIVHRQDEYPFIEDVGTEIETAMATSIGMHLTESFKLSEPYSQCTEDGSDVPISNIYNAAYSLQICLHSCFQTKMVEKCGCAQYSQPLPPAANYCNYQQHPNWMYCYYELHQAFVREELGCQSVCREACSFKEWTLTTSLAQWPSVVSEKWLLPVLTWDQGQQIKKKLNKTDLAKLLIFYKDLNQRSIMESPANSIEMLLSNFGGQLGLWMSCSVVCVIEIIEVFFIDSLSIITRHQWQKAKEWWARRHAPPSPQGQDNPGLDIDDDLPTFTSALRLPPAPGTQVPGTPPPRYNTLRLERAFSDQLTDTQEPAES
T1 sequence (A0A8I3Q679 1-649): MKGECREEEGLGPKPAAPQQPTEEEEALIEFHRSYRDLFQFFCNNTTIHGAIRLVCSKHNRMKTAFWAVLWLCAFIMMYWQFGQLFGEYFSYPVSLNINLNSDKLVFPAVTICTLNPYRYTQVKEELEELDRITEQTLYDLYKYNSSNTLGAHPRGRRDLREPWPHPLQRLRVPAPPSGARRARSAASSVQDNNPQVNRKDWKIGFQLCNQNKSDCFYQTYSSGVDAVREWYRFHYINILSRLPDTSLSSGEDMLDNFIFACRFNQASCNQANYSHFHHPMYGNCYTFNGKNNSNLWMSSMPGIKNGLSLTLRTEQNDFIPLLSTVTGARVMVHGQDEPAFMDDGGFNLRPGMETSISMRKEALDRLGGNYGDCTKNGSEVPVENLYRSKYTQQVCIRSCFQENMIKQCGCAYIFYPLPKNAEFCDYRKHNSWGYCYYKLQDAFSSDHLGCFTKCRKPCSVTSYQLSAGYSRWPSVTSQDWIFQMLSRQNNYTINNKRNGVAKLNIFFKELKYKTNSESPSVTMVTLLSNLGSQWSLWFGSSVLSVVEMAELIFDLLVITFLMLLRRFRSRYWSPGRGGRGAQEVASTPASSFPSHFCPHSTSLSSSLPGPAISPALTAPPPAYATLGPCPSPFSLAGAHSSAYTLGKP
T1 sequence (Q95165 1-641): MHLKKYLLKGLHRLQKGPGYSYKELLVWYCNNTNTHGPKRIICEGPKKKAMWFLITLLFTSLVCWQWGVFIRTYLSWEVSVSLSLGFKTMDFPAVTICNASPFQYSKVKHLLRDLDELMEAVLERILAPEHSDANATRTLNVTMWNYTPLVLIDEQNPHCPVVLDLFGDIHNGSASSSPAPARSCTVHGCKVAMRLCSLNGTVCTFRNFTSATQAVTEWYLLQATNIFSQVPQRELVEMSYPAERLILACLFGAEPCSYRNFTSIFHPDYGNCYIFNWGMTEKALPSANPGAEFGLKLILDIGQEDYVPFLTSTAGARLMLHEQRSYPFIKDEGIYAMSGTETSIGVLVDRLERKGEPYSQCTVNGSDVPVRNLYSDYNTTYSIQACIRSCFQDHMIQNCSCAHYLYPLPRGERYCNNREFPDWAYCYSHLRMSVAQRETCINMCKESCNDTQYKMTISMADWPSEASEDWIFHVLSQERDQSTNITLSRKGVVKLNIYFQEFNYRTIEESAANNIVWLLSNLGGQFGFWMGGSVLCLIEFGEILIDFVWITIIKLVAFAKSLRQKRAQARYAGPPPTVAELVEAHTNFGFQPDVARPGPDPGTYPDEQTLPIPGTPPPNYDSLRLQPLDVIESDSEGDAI
Procedure: One assay used to assess mechanism of action and/or potency of the compounds of the present invention involves the determination of lumenal drug inhibition of airway epithelial sodium currents measured under short circuit current (ISC) using airway epithelial monolayers mounted in Ussing chambers. Cells obtained from freshly excised human, dog, sheep or rodent airways are seeded onto porous 0.4 micron Snapwell™ Inserts (CoStar), cultured at air-liquid interface (ALI) conditions in hormonally defined media, and assayed for sodium transport activity (ISC) while bathed in Krebs Bicarbonate Ringer (KBR) in Ussing chambers. […] All drugs are prepared in dimethyl sulfoxide as stock solutions at a concentration of 1×10^−2 M and stored at 20° C. […] After the maximal concentration (5×10^−5 M) is administered, the lumenal bath is exchanged three times with fresh, drug-free KBR solution, and the resultant ISC measured after each wash for approximately 5 minutes in duration. Reversibility is defined as the percent return to the baseline value for sodium current after the third wash. All data from the voltage clamps are collected via a computer interface and analyzed off-line.
Dose-effect relationships for all compounds are considered and analyzed by the Prism 3.0 program.

mouse corneas = assay: Confocal microscopy of drug penetration in mouse corneas; conditions: one hour after application to corneal epithelium, 37° C. (FIG. 2)
Procedure: Corneal cells were labeled using calcein-AM dye by incubating with corneas for 45 minutes at 37° C. in DMEM media. […] Serial x-y images were obtained one hour post-drug addition by confocal microscopy. […] Pharmacological Effects and Mechanism of Action of the Drug in Animals

[2] = test system: primary human airway epithelial cells; assay: Confocal microscopy assay of amiloride congener uptake, airway epithelial cells; format: cell-based; conditions: 10 uM apical, 60 minute incubation (FIG. 1)
Procedure: FIG. 1. […] Benzamil or Compound 2 (10 uM each) were added to the apical compartment of primary human airway epithelial cells. After a 60 minute incubation, the compounds were visualized by confocal microscopy.
Virtually all amiloride-like molecules fluoresce in the ultraviolet range. This property of these molecules may be used to directly measure cellular update using x-z confocal microscopy. […] Serial x-z images are obtained with time and the magnitude of fluorescence accumulating in the cellular compartment is quantitated and plotted as a change in fluorescence versus time.
Primary HBE cells were placed in an apparatus designed to position transwell membrane supports on a confocal microscope stage (Leica, Wetzlar, Germany). The glycocalyx and cilia were labeled with 3 μM wheat germ agglutinin-fluorescein (Molecular Probes, Eugene, Oreg.) for 45 mm at 37° C. to visualize the apical domain of HBE cell cultures. The autofluorescence of the cells was acquired prior to apical compound addition. Images were acquired with a 63× water immersion lens in the x-z plane. Benzamil was added to the mucosal compartment (10 μM; 350 μl), and images were recorded serially from 0 to 5 mm.

Compound | Epithelial Uptake Rate (Bronchial cells) | Fold Decrease in Apical Absorption (Relative to Amiloride) (Bronchial cells) | IC50 [1] | Fold Increase in Potency (Relative to Amiloride) [1] | Corneal penetration seen by confocal microscopy (mouse corneas) | Cellular penetration/uptake seen by confocal microscopy [2] | Cellular penetration/uptake seen by confocal microscopy ([2]; listed as benzamil)
N=C(NCCCCc1ccc(OCCN(CCCc2ccccc2)C[C@H](O)[C@@H](O)[C@H](O)[C@H](O)CO)cc1)NC(=O)c1nc(Cl)c(N)nc1N [Compound 5] | 0.2 nM/cm^2/min | 10.0 | 6.6 nM | 118 |  |  | 
N=C(NCCCCc1ccc(OCC(O)CO)cc1)NC(=O)c1nc(Cl)c(N)nc1N (stereo not drawn) [Compound 1] |  |  | 7.4 nM | 105 |  |  | 
N=C(N)NC(=O)c1nc(Cl)c(N)nc1N [Amiloride, reference compound] | 2 nM/cm^2/min |  |  |  | can fully penetrate the cornea |  | 
N=C(N)NCCCC[C@@H](N)C(=O)NCCCN(CCCNC(=O)[C@H](N)CCCCNC(=N)N)CCOc1ccc(CCCCNC(=N)NC(=O)c2nc(Cl)c(N)nc2N)cc1 [Compound 3] |  |  | 3.2 nM | 244 | remains associated with the apical (epithelial) surface |  | 
N=C(N)NCCOc1ccc(CCCCNC(=N)NC(=O)c2nc(Cl)c(N)nc2N)cc1 [Compound 2] | 0.2 nM/cm^2/min | 10.0 | 10.2 nM | 77 |  | concentrated on the exterior cell surface | 
NC(=NCc1ccccc1)NC(=O)c1nc(Cl)c(N)nc1N [Benzamil] | 6.6 nM/cm^2/min | 0.3 | 46 nM |  |  | largely concentrated inside cells | rapidly taken up by the cells
N=C(NCCCCc1ccc(OCCN(CCCc2cccc3ccccc23)C[C@H](O)[C@@H](O)[C@H](O)[C@H](O)CO)cc1)NC(=O)c1nc(Cl)c(N)nc1N [Compound 6] |  |  | 5.9 nM | 186 |  |  | 
NC(=Nc1ccccc1)NC(=O)c1nc(Cl)c(N)nc1N [Phenamil, reference compound] | 9.0 nM/cm^2/min | 0.2 | 116 nM | 6.5 |  |  | 
